# From patent publication US5968479A, “Diagnostic marker” (Daiichi Pure Chemicals Co., Ltd., priority 1995, dated 1999)
# Key:
# [1] = Water solubility of labeling compounds before (zwitterion type) and after (double salt type) salt formation; assay type: physicochemical; details: for solubility: water, zwitterion type
# Method: The above-obtained Compound 17 (100 mg, 0.11 mmol) was dissolved in methanol (2 ml) and the solution was added with a solution of sodium iodide (1 g, 6.7 mmol) in methanol (5 ml). The methanol solution was concentrated to a half of the volume and cooled to 4° C. overnight. The precipitated crystals were collected by filtration. The obtained green crystals were dried in a vacuum desiccator to give Compound 18 (labeling compound of the formula (V), 85 mg, yield 72%). Data of water-solubility and infrared absorption spectrum data (IR) were obtained before the formation of the salt with sodium iodide (zwitterion type) and after the salt formation. The iodide content was determined by the Schoniger method.
# Indocyanine green-N-butanoic acid sulfosuccinimide ester (Compound 19) was prepared according to the method of Example 3. Compound 19 (150 mg, 0.17 mmol) was dissolved in methanol (3 ml) and the solution was added with a solution of sodium iodide (1.5 g, 10 mmol) in methanol (8 ml). The methanol was concentrated to a half of the volume and the concentrate was cooled to 4° C. overnight. The precipitated crystals were collected by filtration. The obtained green crystals were dried in a vacuum desiccator to give Compound 20 (labeling compound of the formula (V), 117 mg, yield 66%). Data of water-solubility and infrared absorption spectra data (IR) were obtained before and after the salt formation with sodium iodide. Iodine content was determined by the Schoniger method.
# Indocyanine green-N-hexanoic acid sulfosuccinimide ester (Compound 21) was prepared according to the method of Example 3. Compound 21 (100 mg, 0.11 mmol) was dissolved in methanol (2 ml) and the solution was added with a solution of sodium perchlorate (0.3 g, 2.5 mmol) in methanol (20 ml). The methanol was concentrated to a quarter of the volume under reduced pressure and the concentrate was cooled to 4° C. overnight. The precipitated crystals were collected by filtration. The obtained green crystals were dried in a vacuum desiccator to give Compound 22 (labeling compound of the formula (V), 23 mg, yield 21%). Data of water-solubility and IR were obtained before and after the salt formation with sodium perchlorate.
# [2] = Fluorescence spectra of labeling compounds; assay type: physicochemical
# Method: Compound 5 (40 mg, 64 μmol) in DMF (1 ml) was added with N-hydroxysuccinic anhydride (8.8 mg, 76 μmol) and N,N'-dicyclohexylcarbodiimide (DCC, 26.4 mg, 0.128 mmol) and the mixture was allowed to react at 4° C. overnight. Ether (10 ml) was added to the reaction mixture and the resulting residue was washed three times with ether. The solid mass was dissolved in chloroform (400 μl), and the solution was added with 0.1M aqueous hydrochloric acid (200 μl) and stirred. Then, the chloroform layer was separated and washed three times with water. The chloroform solution was concentrated under reduced pressure to obtain Compound 6 as black green solid (a labeling compound of the formula (III)) (38 mg, yield 78.5%). MS (FAB) m/e=720(M^+); Fluorescence spectra: λex =769 nm, λem =820 nm (10% DMSO in water).
# Compound 5 (20 mg, 32 μmol) in DMF (1 ml) was added with sodium N-hydroxysuccinic anhydride sulfonate (8.3 mg, 38 μmol) and N,N'-dicyclohexylcarbodiimide (13.2 mg, 64 μmol), and the mixture was allowed to react at 4° C. overnight and then filtered. Ether (10 ml) was added to the filtrate and the resulting residue was washed three times with ether. The solid mass was dissolved in […] (400 μl), and the solution was added with 0.1M aqueous hydrochloric acid (200 μl) and stirred. Then, the chloroform layer was separated and washed three times with water. The chloroform solution was concentrated under reduced pressure to obtain Compound 7 as black green solid (labeling compound of the formula (III), 17 mg, yield 66.4%). MS (FAB) m/e=822 (M^+ Na); Fluorescence spectra λex =769 nm, λem =820 nm (10% DMSO in water).
# Compound 5 (20 mg, 32 μmol) in DMF (0.5 ml) was added with N-(2-(N'-maleimide)ethyl)piperazine dihydrochloride (PEM, 4.4 mg, 38 μmol), triethylamine (TEA, 20 μl, 0.146 mmol) and DCC (10.2 mg, 49 μmol), and the mixture was allowed to react at 4° C. overnight. Ether (10 ml) was added to the reaction mixture and the resulting residue was washed three times with ether. The solid mass was dissolved in chloroform (400 μl), and the solution was added with 0.1M aqueous hydrochloric acid (200 μl) and stirred. Then, the chloroform layer was separated and washed three times with water. The chloroform solution was concentrated under reduced pressure to obtain Compound 8 as black green solid (labeling compound of the formula (III), 20 mg, yield 70.5%). MS (FAB) m/e=814(M^+); Fluorescence spectra λex =773 nm, λem =821 nm (10% DMSO in water).
# Compound 6 (20 mg, 26.4 μmol) in DMF (0.5 ml) was added with hydrazine monohydrochloride (9.0 mg, 0.131 mmol) and the mixture was allowed to react overnight. The reaction mixture was filtered and the filtrate was concentrated under reduced pressure. The residue was dissolved in chloroform (0.5 ml) and the chloroform solution was washed with water three times. The chloroform layer was concentrated under reduced pressure to obtain Compound 9 as black green solid (16 mg, yield 90.0%). MS (FAB) m/e=637(M^+); Fluorescence spectra: λex =771 nm, λem =820 nm (10% DMSO in water).
# Compound 12 (30 mg, 41.8 μmol) in a 50 v/v % aqueous solution of THF (1 ml) was added with sodium N-hydroxysuccinic anhydride-sulfonate (16.8 mg, 77.4 μmol) and N,N'-dicyclohexylcarbodiimide (25.8 mg, 0.125 mmol), and the mixture was allowed to react at 4° C. overnight and then filtered. The filtrate was concentrated under reduced pressure at a temperature of 20° C. or less. The residue was added with ethyl acetate (10 ml) and the deposited crystals were further washed with ether three times. These crystals were dissolved in water (200 μl) and purified using a Sephadex LH20 column (eluent: water) to obtain Compound 13 as black green solid (labeling compound of the formula (III), 34 mg, yield 88.8%). MS (FAB) m/e=892(M^-); Fluorescence spectrum λex =771 nm, λem =822 nm (water). […]
SMILES,Fluorescence spectra λem ([2]; 10% DMSO in water) [nm],Fluorescence spectra λex ([2]; 10% DMSO in water) [nm],further results
"CC1(C)C(=CC=CC=CC=CC2=[N+](CCCCS(=O)(=O)[O-])c3ccc4ccccc4c3C2(C)C)N(CCCC(=O)ON2C(=O)CC(S(=O)(=O)O)C2=O)c2ccc3ccccc3c21 (stereo not shown) [Compound 19, Indocyanine green-N-butanoic acid sulfosuccinimide ester]",–,–,solubility [1]: ≥ 100 µg/mL
CC[N+]1=C(C=CC=CC=CC=C2N(CCCCCC(=O)ON3C(=O)CCC3=O)c3ccc4ccccc4c3C2(C)C)C(C)(C)c2c1ccc1ccccc21 [Compound 6],820,769,–
CC[N+]1=C(C=CC=CC=CC=C2N(CCCCCC(=O)ON3C(=O)CC(S(=O)(=O)O)C3=O)c3ccc4ccccc4c3C2(C)C)C(C)(C)c2c1ccc1ccccc21 (stereo not shown) [Compound 7],820,769,–
"CC1(C)C(=CC=CC=CC=CC2=[N+](CCCCS(=O)(=O)[O-])c3ccc4ccccc4c3C2(C)C)N(CCCCCC(=O)ON2C(=O)CC(S(=O)(=O)O)C2=O)c2ccc3ccccc3c21 (stereo not shown) [Compound 17, indocyanine green-N-hexanoic acid sulfosuccinimide ester]",–,–,Fluorescence spectra λem ([2]; water): 807 nm; Fluorescence spectra λex ([2]; water): 768 nm
CC[N+]1=C(C=CC=CC=CC=C2N(CCCCCC(=O)NN)c3ccc4ccccc4c3C2(C)C)C(C)(C)c2c1ccc1ccccc21 [Compound 9],820,771,–
CC[N+]1=C(C=CC=CC=CC=C2N(CCCCCC(=O)N3CCN(CCN4C(=O)C=CC4=O)CC3)c3ccc4ccccc4c3C2(C)C)C(C)(C)c2c1ccc1ccccc21 [Compound 8],821,773,–
CC1(C)C(=CC=CC=CC=CC2=[N+](CCCS(=O)(=O)[O-])c3ccc4ccccc4c3C2(C)C)N(CCCCCC(=O)ON2C(=O)CC(S(=O)(=O)O)C2=O)c2ccc3ccccc3c21 (stereo not shown) [Compound 13],–,–,Fluorescence spectra λem ([2]; water): 822 nm; Fluorescence spectra λex ([2]; water): 771 nm
CC1(C)C(=CC=CC=CC=CC2=[N+](CCCCS(=O)(=O)[O-])c3ccc4ccccc4c3C2(C)C)N(CCCCCC(=O)ON2C(=O)CC(S(=O)(=O)O)C2=O)c2ccc3ccccc3c21 (stereo not shown) [Compound 18],–,–,Water solubility ([1]; double salt type (sodium iodide)): 1 mg/0.8 ml
CC1(C)C(=CC=CC=CC=CC2=[N+](CCCCS(=O)(=O)[O-])c3ccc4ccccc4c3C2(C)C)N(CCCCCC(=O)ON2C(=O)CC(S(=O)(=O)O)C2=O)c2ccc3ccccc3c21 (stereo not shown) [Compound 22],–,–,Water solubility ([1]; double salt type (sodium perchlorate)): 1 mg/5 ml
"CC1(C)C(=CC=CC=CC=CC2=[N+](CCCCS(=O)(=O)[O-])c3ccc4ccccc4c3C2(C)C)N(CCCCCC(=O)ON2C(=O)CC(S(=O)(=O)O)C2=O)c2ccc3ccccc3c21 (stereo not shown) [Compound 21, Indocyanine green-N-hexanoic acid sulfosuccinimide ester]",–,–,solubility [1]: ≥ 100 µg/mL
